In ChEMBL document CHEMBL1667751, “Synthesis and antimicrobial activity of highly functionalised novel β-lactam grafted spiropyrrolidines and pyrrolizidines” (2011) one finds zone of inhibition data, which are given here for three compounds.

The subject of experiment [1] is Staphylococcus aureus. Briefly: Antibacterial activity against Staphylococcus aureus at 75 ug/ml after 24 hrs agar diffusion method. The experiment is classed as functional. Conditions: read-out: DIZ. Background: In agar diffusion tests the substance spreads into inoculated agar from a disc or well.
Experiment [2] relates to Proteus mirabilis. Briefly: Antibacterial activity against Proteus mirabilis at 25 ug/ml after 24 hrs agar diffusion method. The format is functional. The note with it: read-out: DIZ.
Experiment [3] relates to Proteus mirabilis. Briefly: Antibacterial activity against Proteus mirabilis at 50 ug/ml after 24 hrs agar diffusion method. The experiment is classed as functional. The note with it: read-out: DIZ.
In experiment [4] the test system is Salmonella typhi. Briefly: Antibacterial activity against Salmonella typhi at 50 ug/ml after 24 hrs agar diffusion method. The note with it: Salmonella enterica, read-out: DIZ. The experiment is classed as functional, Salmonella enterica subsp. enterica serovar Typhi.
For experiment [5], the system named is Proteus mirabilis. Briefly: Antibacterial activity against Proteus mirabilis at 100 ug/ml after 24 hrs agar diffusion method. The format is functional. The note with it: read-out: DIZ.
For experiment [6], the system named is Salmonella typhi. Briefly: Antibacterial activity against Salmonella typhi at 100 ug/ml after 24 hrs agar diffusion method. The format is functional, Salmonella enterica subsp. enterica serovar Typhi. Conditions: Salmonella enterica, read-out: DIZ.
In experiment [7] the test system is Proteus vulgaris. Briefly: Antibacterial activity against Proteus vulgaris at 100 ug/ml after 24 hrs agar diffusion method. The format is functional. Conditions: read-out: DIZ.
Experiment [8] has as its system Salmonella typhi. Briefly: Antibacterial activity against Salmonella typhi at 75 ug/ml after 24 hrs agar diffusion method. The experiment is classed as functional, Salmonella enterica subsp. enterica serovar Typhi. The note with it: Salmonella enterica, read-out: DIZ.
The subject of experiment [9] is Salmonella typhi. Briefly: Antibacterial activity against Salmonella typhi at 25 ug/ml after 24 hrs agar diffusion method. The experiment is classed as functional, Salmonella enterica subsp. enterica serovar Typhi. The note with it: Salmonella enterica, read-out: DIZ.
Experiment [10] has as its system Proteus mirabilis. Briefly: Antibacterial activity against Proteus mirabilis at 75 ug/ml after 24 hrs agar diffusion method. The experiment is classed as functional. Conditions: read-out: DIZ.
The test system of experiment [11] is Proteus vulgaris. In words: Antibacterial activity against Proteus vulgaris at 50 ug/ml after 24 hrs agar diffusion method. The format is functional. The note with it: read-out: DIZ.
For experiment [12], the system named is Proteus vulgaris. Briefly: Antibacterial activity against Proteus vulgaris at 25 ug/ml after 24 hrs agar diffusion method. The experiment is classed as functional. The note with it: read-out: DIZ.
Experiment [13] has as its system Staphylococcus aureus. In words: Antibacterial activity against Staphylococcus aureus at 25 ug/ml after 24 hrs agar diffusion method. Conditions: read-out: DIZ. The format is functional.
Experiment [14] relates to Proteus vulgaris. Briefly: Antibacterial activity against Proteus vulgaris at 75 ug/ml after 24 hrs agar diffusion method. The format is functional. The note with it: read-out: DIZ.
Experiment [15] relates to Staphylococcus aureus. Briefly: Antibacterial activity against Staphylococcus aureus at 100 ug/ml after 24 hrs agar diffusion method. The experiment is classed as functional. Conditions: read-out: DIZ.
Experiment [16] deals with Staphylococcus aureus. Briefly: Antibacterial activity against Staphylococcus aureus at 50 ug/ml after 24 hrs agar diffusion method. Conditions: read-out: DIZ. The experiment is classed as functional.

As for `CCOC(=O)[C@@H]1[C@@H]([C@H]2[C@@H](Oc3ccccc3)C(=O)N2c2ccc(OC)cc2)C2CCCN2[C@]12C(=O)Nc1ccccc12` (stereo partly drawn), the zone of inhibition at 75 µg/mL stood at 22 mm in [1], 21 mm in experiment [8], 24 mm in experiment [10] and 27 mm in [14]. Also, the zone of inhibition at 25 µg/mL is 12 mm in [2], 13 mm in [9], 19 mm in [12] and 14 mm in [13]. Besides, the zone of inhibition at 50 µg/mL is 16 mm in experiment [3], 16 mm in experiment [4], 20 mm in experiment [11] and 18 mm in [16]. Further, the zone of inhibition at 100 µg/mL in experiment [5] is 36 mm; in [6] it was 31 mm; in experiment [7] it was over 40 mm; in experiment [15], 34 mm.

For `CCOC(=O)[C@@H]1[C@@H]([C@H]2[C@@H](c3ccccc3)C(=O)N2c2ccc(OC)cc2)C2CCCN2[C@]12C(=O)Nc1ccccc12` (stereo partly drawn), the zone of inhibition at 75 µg/mL in [1] worked out at 21 mm; in experiment [8], 18 mm; in experiment [10] it was 21 mm; in [14], 25 mm. In addition, the zone of inhibition at 25 µg/mL amounted to 14 mm in experiment [2], 11 mm in [9], 13 mm in experiment [12] and 9 mm in experiment [13]. Further, the zone of inhibition at 50 µg/mL in experiment [3] turned out to be 18 mm; in experiment [4], 14 mm; in experiment [11], 21 mm; in experiment [16] it was 16 mm. Further, the zone of inhibition at 100 µg/mL is 32 mm in experiment [5], 26 mm in experiment [6], over 40 mm in experiment [7] and 31 mm in experiment [15].

In the case of `CN(C)[C@@H]1C(O)=C(C(N)=O)C(=O)[C@@]2(O)C(O)=C3C(=O)c4c(O)cccc4[C@@](C)(O)[C@H]3C[C@@H]12` [TETRACYCLINE], the zone of inhibition at 75 µg/mL in experiment [1], in experiment [8], in experiment [10] and in experiment [14] was 28 mm throughout. For the same compound, the zone of inhibition at 25 µg/mL in experiment [2], in experiment [9], in [12] and in experiment [13] was 18 mm throughout. In addition, the zone of inhibition at 50 µg/mL in [3] came to 24 mm; in experiment [4], 22 mm; in [11], 24 mm; in experiment [16], 22 mm. In addition, the zone of inhibition at 100 µg/mL in experiment [5], in experiment [6], in experiment [7] and in [15] was over 40 mm throughout.
